Legend:
[1] = system: MCP-1, TNF-α, and IFN-γ in blood sera; assay: ELISA of inflammation markers in blood sera; assay type: in vivo, mouse; settings: ELISA 28 days after bone marrow transplantation; PBA-treated vs vehicle-treated mice, n=4, P<0.05
Experimental: (§1) Bone marrow transplantation was performed as described in the above section “Bone marrow transplantation,” and the resulting allogeneic bone marrow transplantation recipient mice were divided into two groups. One group was treated with intraperitoneal injection of PBA (10 mg/kg) (Aldrich) while the other was treated with intraperitoneal injection of a solvent vehicle⋅phosphate buffered saline (PBS) (pH 7.4). The allogeneic bone marrow transplantation recipients received once-daily administration of PBA or the solvent vehicle from Day 10 to Day 27 after bone marrow transplantation. They were sacrificed on Day 28 after bone marrow transplantation.
Blood samples were withdrawn from PBA-treated mice and vehicle-treated mice, and centrifuged at 4000 rpm for 10 minutes. The levels of MCP-1, tumor necrosis factor-α (TNF-α), and interferon-γ (IFN-γ) in the resulting blood sera were measured using ELISA kits (Becton Dickinson). These assays were performed according to the protocol recommended by manufacturer Becton Dickinson.

[2] = system: endoplasmic reticulum stress markers and related inflammation markers in cGVHD target organs; assay: Immunoblot analysis of endoplasmic reticulum stress markers and related inflammation markers in cGVHD target organs; assay type: in vivo, mouse; settings: n=4
Experimental: as §1
cGVHD-affected organs (exorbital lacrimal gland, proximal portion of the small intestine, dorsal skin, liver, salivary gland, lung, large intestine, and eyes) were analyzed herein.
Tissues of interest were each placed into an Eppendorf tube, and a pre-cooled RIPA buffer solution was then added to the tube. Subsequently, the tissues were each homogenized with an electric homogenizer. Samples were each allowed to stand on ice for 1 hour, and then centrifuged at 15000 rpm for 5 minutes at 4° C. Then, the supernatants were each collected in a fresh tube on ice, and used as a cell lysate. The cell lysates each received the same amount of a 5×Laemmli buffer solution, and each was heated at 100° C. for 5 minutes to denature proteins.
An aliquot of each sample having the same amount of proteins was loaded into a well of an SDS-PAGE gel, and then […]. Proteins were transferred from the gel to a membrane at 15 V for 20 minutes. The membrane was blocked at room temperature for 1 hour with 5% skim milk or 5% BSA (bovine serum albumin) in 1×TBST (a mixture of Tris-buffered saline and Tween 20). Subsequently, the membrane was incubated with a primary antibody at 4° C. overnight. The above primary antibody was diluted 1000 times with 5% skim milk or 5% BSA in 1×TBST. After incubation with the primary antibody, the membrane was washed with 1×TBST (3×10 minutes), and subjected to a secondary antibody at room temperature for 1 hour, and then washed with 1×TBST (3×10 minutes) and 1×TBS (2×10 minutes).
Proteins of interest were visualized by either one of the following two methods. (1) A target protein was colorimetrically detected using a BCIP/NBT substrate (Promega). (2) A signal was developed with an enhanced chemiluminescence (ECL) detection reagent (GE Healthcare), and a target protein was then visualized with an LAS4000 mini chemiluminescence imaging system (FUJIFILM Corporation/GE Healthcare).
The intensity of the resulting protein band was analyzed using image processing software ImageJ. Primary antibodies used in the experiments were GRP78 (Abcam), phospho-PERK (Thr980; Cell Signaling Technology Inc.), PERK (C33E10; Cell Signaling Technology Inc.), phosphor-IRE1α (Thermo Fisher Sceientific), IRE1α (14C10; Cell Signaling Technology Inc.), phosphor-eIF2α (119A11; Cell Signaling Technology Inc.), eIF2α (Cell Signaling Technology Inc.), CHOP (9C8; Thermo Fisher Scientific), TXNIP (D5F3E, Cell Signaling Technology Inc.), NF-κB (Abcam), HSP47 (SPA-470; Stress-Gen Biotechnologies Corp.), CTGF (Abcam), and β-actin (AC-15; Abcam).
(§2) With regard to the secondary antibody, (1) either AP-conjugated anti-mouse IgG antibody (Promega) or AP-conjugated anti-rabbit IgG antibody (Promega) was used when protein bands were chromogenically visualized; (2) HRP-conjugated anti-mouse antibody (Thermo Fisher Scientific) or HRP-conjugated anti-rabbit antibody (Thermo Fisher Scientific) was used when target proteins were detected by ECL.

CTGF = assay: Immunoblot analysis of fibrosis marker CTGF in organs; assay type: in vivo, mouse; settings: PBA-treated vs vehicle-treated organs, n=4, P<0.05, FIG. 5B, 5C
Experimental: (§3) Bone marrow transplantation was performed as described in the above section “Bone marrow transplantation,” and the resulting allogeneic bone marrow transplantation recipient mice were divided into two groups. One group was treated with intraperitoneal injection of PBA (10 mg/kg) (Aldrich) while the other was treated with intraperitoneal injection of a solvent vehicle⋅phosphate buffered saline (PBS) (pH 7.4). The allogeneic bone marrow transplantation recipients received once-daily administration of PBA or the solvent vehicle from Day 10 to Day 27 after bone marrow transplantation. They were sacrificed on Day 28 after bone marrow transplantation. […]
Proteins of interest were visualized by either one of the following two methods. (1) A target protein was colorimetrically detected using a BCIP/NBT substrate (Promega). […]
The intensity of the resulting protein band was analyzed using image processing software ImageJ. […]
as §2

[3] = system: CHOP-expressing macrophages in lacrimal gland; assay: Immunofluorescence of CD68/CHOP in lacrimal gland; assay type: in vivo; settings: lacrimal gland from PBA-treated vs vehicle-treated mouse, FIG. 7A
Experimental: as §3
Fluorescence images were captured under an LSM confocal microscope (Carl Zeiss). For counting CD45^+ cells, 5 randomly selected regions per section were photographed at a magnification of ×200, and the number of CD45^+ cells in each image was then determined. […]

[4] = PBA-treated vs vehicle-treated organs
[5] = organs of PBA-treated (10 mg/kg i.p.) vs vehicle-treated cGVHD mice

## O=C(O)CCCc1ccccc1 [PBA, 4-phenyl-n-butyric acid]
[1]
  protein level of IFN-γ in blood sera: lower protein levels
  protein level of MCP-1 in blood sera: lower protein levels
  protein level of TNF-α in blood sera: lower protein levels
[2]; [4]
  proinflammatory molecule NF-κB in organs: inhibited
  proinflammatory molecule TXNIP in organs: inhibited
[2]; [5]
  protein level of CHOP in organs: lower protein levels
  protein level of GRP78 in organs: lower protein levels
  protein level of p-IRE1α in organs: lower protein levels
  protein level of p-PERK in organs: lower protein levels
  protein level of p-eIF2α in organs: lower protein levels
CTGF
  CTGF expression in organs: overexpressed in the vehicle-treated organs, but not in the PBA-treated organs
[3]
  CHOP-expressing macrophages migrated into lacrimal gland: not observed

— patent US20190192458A1, “THERAPEUTIC/PROPHYLACTIC AGENT FOR GRAFT-VERSUS-HOST DISEASE, FIBROCYTE INVASION INHIBITOR, AND INHIBITOR AGAINST TEAR REDUCTION AND REDUCTION IN GOBLET CELLS” (KEIO UNIVERSITY, priority 2016, published 2019)
